One series deals with canine leishmaniasis. In words: dosage range (start of activity to start of toxicity) in dog. It counts as in vivo. Conditions: higher doses not tolerated, lower doses almost ineffective.
Series [1] in a line: renal values (creatinine) in long-term applications. In kind it is in vivo. Conditions: long-term applications over several months, therapeutically effective dosages. The text has this: Oleyl phosphocholine is the first alkyl phosphocholine which can be used orally and intravenously.
Series [2] can be described thus: stability in injection or infusion solutions or tablets. It counts as physicochemical. Conditions: 30° C. The source says: For use in veterinary medicine, it is also useful that mixtures of oleyl phosphocholine (90%) and hexadecyl phosphocholine (10%) can be used and can be made available extremely inexpensively from olive oil.
The conditions of series [3]: animal experiments.

With `CCCCCCCCCCCCCCCCOP(=O)([O-])OCC[N+](C)(C)C` [HePC, hexadecyl phosphocholine], the “dose at which activity against canine leishmaniasis started” value in the series with canine leishmaniasis was 3 mg per kg body weight per day.

In the case of `CCCCCCCC/C=C\CCCCCCCCOP(=O)([O-])OCC[N+](C)(C)C` [OlPC, oleyl phosphocholine], the “renal values (increase in creatinine)” value in series [1] is given as “no deterioration in the renal values”. Moreover, in series [2], the stability entry is “can be guaranteed over a longer period”. Further, the “therapeutic action compared to C18-PC (octadecyl) and C18:1(trans)-PC (elaidyl)” value in series [3] was “markedly superior”.

Source of the values: US9326989B2, “Oleyl phosphocholine” (Max-Planck-Gesellschaft zur Foerderung der Wissenschaften …, priority 2007, dated 2016).
